Source: patent publication US8017611B2, “Pyridine and pyrazine derivatives -083” (AstraZeneca AB, priority 2007, dated 2011)
pIC50: −log10 of the molar value. Like-named read-outs stand apart in the source and are kept apart here.

What was measured:
[1] = target: T1, recombinant Axl tyrosine kinase (Homo sapiens, UniProt P30530); assay: In vitro Axl kinase assay (AlphaScreen), Test (a); type: biochemical; details: for % Axl tyrosine kinase inhibition at 1 μM concentration / inhibition at 1 µM: test compound at 1 μM, first value quoted; for inhibition at 1 µM: read-out: % Axl tyrosine kinase inhibition at 1 μM concentration; for pIC50: Test (a), read-out: IC50 versus Axl tyrosine kinase
T1 construct: encompassing amino acids 473 to 894 of Axl; GST (N); made in house; host or cells: SF126 insect cells
T1 sequence (P30530 473-894): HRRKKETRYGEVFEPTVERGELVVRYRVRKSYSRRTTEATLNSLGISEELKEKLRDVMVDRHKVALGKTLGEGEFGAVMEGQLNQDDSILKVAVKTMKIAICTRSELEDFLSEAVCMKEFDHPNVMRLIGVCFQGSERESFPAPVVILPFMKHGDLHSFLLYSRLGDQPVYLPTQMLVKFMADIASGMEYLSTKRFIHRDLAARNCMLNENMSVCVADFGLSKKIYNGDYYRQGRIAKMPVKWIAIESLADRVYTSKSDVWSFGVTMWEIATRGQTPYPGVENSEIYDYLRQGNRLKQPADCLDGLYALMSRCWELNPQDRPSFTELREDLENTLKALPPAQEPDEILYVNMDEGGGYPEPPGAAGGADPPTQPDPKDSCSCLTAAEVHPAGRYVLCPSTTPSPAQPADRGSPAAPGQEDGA

[2] = target: T2, Axl expressed on NCI H1299 lung large cell carcinoma cells (Homo sapiens, UniProt P30530); assay: Cellular phospho-Axl ELISA assay, Test (b)
T2 sequence (P30530 26-894): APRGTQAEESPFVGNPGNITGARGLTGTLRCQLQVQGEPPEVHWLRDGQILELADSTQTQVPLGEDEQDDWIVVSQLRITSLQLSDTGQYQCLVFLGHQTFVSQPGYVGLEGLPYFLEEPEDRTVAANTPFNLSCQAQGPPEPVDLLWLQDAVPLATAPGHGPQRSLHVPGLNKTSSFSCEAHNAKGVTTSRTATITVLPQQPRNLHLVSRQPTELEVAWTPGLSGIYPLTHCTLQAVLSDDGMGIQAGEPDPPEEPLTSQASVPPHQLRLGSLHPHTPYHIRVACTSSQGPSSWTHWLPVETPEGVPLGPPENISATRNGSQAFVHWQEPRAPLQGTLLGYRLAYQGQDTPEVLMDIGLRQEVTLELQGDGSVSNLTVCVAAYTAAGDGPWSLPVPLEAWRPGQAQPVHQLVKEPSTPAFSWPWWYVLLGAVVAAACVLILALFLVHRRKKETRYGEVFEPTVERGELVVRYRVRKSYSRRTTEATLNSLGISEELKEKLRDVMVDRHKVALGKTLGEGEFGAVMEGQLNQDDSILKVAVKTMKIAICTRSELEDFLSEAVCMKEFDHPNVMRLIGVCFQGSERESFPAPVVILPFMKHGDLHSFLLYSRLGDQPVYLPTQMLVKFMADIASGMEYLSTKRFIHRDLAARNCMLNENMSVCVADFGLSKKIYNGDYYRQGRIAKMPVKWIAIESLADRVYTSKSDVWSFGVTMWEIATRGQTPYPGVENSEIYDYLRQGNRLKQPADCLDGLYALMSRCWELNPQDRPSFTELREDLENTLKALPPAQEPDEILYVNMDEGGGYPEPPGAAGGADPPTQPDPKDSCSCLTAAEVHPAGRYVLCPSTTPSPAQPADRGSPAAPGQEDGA
Experimental: This assay uses a conventional ELISA method to determine the ability of test compounds to inhibit phosphorylation of tyrosine residues in Axl.
100 μl Aliquots were seeded into each of the wells of a clear 96 well tissue culture plate and the plates were incubated overnight at 37° C. with 5% CO2 to allow the cells to adhere to the wells.
Aliquots of each compound concentration were added to the cells in each well using the Echo 550 (Labcyte Inc., Sunnyvale, Calif., US). Control cells received DMSO only. The cells were incubated for 2 hours at 37° C. with 5% CO2.
The resultant tissue culture plates were incubated on ice for 30 minutes to ensure full lysis.
The wells were washed 3 times with 250 μl per well of PBS containing 0.05% v/v Tween (PBS/T). The wells were treated with 3% w/v BSA in PBS at ambient temperature for 2 hours and subsequently washed 3 times with 250 μl per well of PBS/T.
50 μl Aliquots of the NCI H1299 cell lysates were added to the ELISA plates.
100 μl Aliquots of substrate solution were added to each of the wells and fluorescence was read on a Tecan Ultra plate reader (Tecan UK Ltd., Reading, Berkshire, UK).

[3] = read-out: IC50 versus cellular phospho-Axl, Test (b), footnotes of Table A
[4] = read-out: IC50 versus cellular phospho-Axl, Test (b), NCI H1299 cells stimulated with GAS6

Row | % Axl tyrosine kinase inhibition at 1 μM concentration [1] | inhibition at 1 µM [1] [%] | pIC50 [1] | SMILES | further results
1 | ^#99.8% | – | – | Nc1ncc(-c2ccc(C3CCNCC3)cc2)cc1-c1nc2ccccc2o1 [Example 2.18] | pIC50 [2, 3]: ~7.15
2 | – | 99.9 | – | Nc1ncc(-c2cnn(C3CCNCC3)c2)cc1-c1nc2ccccc2s1 [Example 14, 3-(1,3-Benzothiazol-2-yl)-5-[1-(4-piperidyl)pyrazol-4-yl]pyridin-2-amine] | pIC50 [2]: ~7.00
3 | – | 100 | ~9.40 | Cc1nn(C2CCNCC2)cc1-c1cnc(N)c(-c2nc3ccccc3o2)c1 [Example 22, 3-(1,3-benzoxazol-2-yl)-5-[3-methyl-1-(4-piperidyl)pyrazol-4-yl]pyridin-2-amine] | pIC50 [2]: ~7.80
4 | – | – | – | CN1CCC(n2cc(-c3cnc(N)c(-c4nc5ncc(F)cc5o4)c3)cn2)CC1 [Example 41.7] | pIC50 [2, 3]: ~6.63
5 | 100.0% | – | ~9.10 | CN1CCC(n2cc(-c3cnc(N)c(-c4nc5ccccc5o4)c3)c(CO)n2)CC1 [Example 41.19] | pIC50 [2, 4]: ~8.15
6 | 100.0% | – | ~9.52 | COCc1nn(C2CCN(C)CC2)cc1-c1cnc(N)c(-c2nc3ccccc3o2)c1 [Example 41.26] | pIC50 [2, 4]: ~8.52
7 | – | 100 | ~9.22 | COCc1nn(C2CCN(C(=O)CO)CC2)cc1-c1cnc(N)c(-c2nc3ccccc3o2)c1 [Example 66, 1-[4-[4-[6-amino-5-(1,3-benzoxazol-2-yl)-3-pyridyl]-3-(methoxymethyl)pyrazol-1-yl]-1-piperidyl]-2-hydroxy-ethanone] | –
8 | 100.0% | – | ~9.15 | COCc1nn(C2CCN(C(=O)[C@H](C)O)CC2)cc1-c1cnc(N)c(-c2nc3ccccc3o2)c1 [Example 67.1] | –
9 | 100.0% | – | – | C[C@H](O)C(=O)N1CCC(n2cc(-c3cnc(N)c(-c4nc5ccccc5o4)c3)c(CO)n2)CC1 [Example 67.2] | –
10 | – | 100 | – | CNC(=O)CN1CCC(n2cc(-c3cnc(N)c(-c4nc5ccccc5o4)c3)c(COC)n2)CC1 [Example 68, 2-[4-[4-[6-amino-5-(1,3-benzoxazol-2-yl)-3-pyridyl]-3-(methoxymethyl)pyrazol-1-yl]-1-piperidyl]-N-methyl-acetamide] | –
11 | – | 100 | – | CN(C)C(=O)CN1CCC(n2cc(-c3cnc(N)c(-c4nc5ccccc5o4)c3)c(CO)n2)CC1 [Example 69, 2-[4-[4-[6-amino-5-(1,3-benzoxazol-2-yl)-3-pyridyl]-3-(hydroxymethyl)pyrazol-1-yl]-1-piperidyl]-N,N-dimethyl-acetamide] | –
12 | – | 99.9 | – | CNC(=O)c1cccc2nc(-c3cc(-c4cnn(C5CCNCC5)c4)cnc3N)oc12 [Example 70, 2-[2-amino-5-[1-(4-piperidyl)pyrazol-4-yl]-3-pyridyl]-N-methyl-1,3-benzoxazole-7-carboxamide] | –
13 | – | 100 | – | COCc1nn(C2CCN(C(=O)CN(C)C)CC2)cc1-c1cnc(N)c(-c2nc3ccccc3o2)c1 [Example 71, 1-[4-[4-[6-amino-5-(1,3-benzoxazol-2-yl)-3-pyridyl]-3-(methoxymethyl)pyrazol-1-yl]-1-piperidyl]-2-dimethylaminoethanone] | –
14 | – | 100 | – | COCc1nn(C2CCN(CCO)CC2)cc1-c1cnc(N)c(-c2nc3ccccc3o2)c1 [Example 72, 2-[4-[4-[6-amino-5-(1,3-benzoxazol-2-yl)-3-pyridyl]-3-(methoxymethyl)pyrazol-1-yl]-1-piperidyl]ethanol] | –
